This passage reports IC50 results from patent publication US20110301146A1 (ONCOTHERAPY SCIENCE, INC., priority 2008, published 2011).

The structures appear in SMILES notation.

What is called IC50 is the point on the concentration scale where inhibition reaches its midpoint. High values mean lower potency, low ones higher potency.

In this assay the target is T1, GSK-3beta (Homo sapiens, UniProt P49841).
T1 construct: purchased Invitrogen
T1 sequence (P49841 whole entry): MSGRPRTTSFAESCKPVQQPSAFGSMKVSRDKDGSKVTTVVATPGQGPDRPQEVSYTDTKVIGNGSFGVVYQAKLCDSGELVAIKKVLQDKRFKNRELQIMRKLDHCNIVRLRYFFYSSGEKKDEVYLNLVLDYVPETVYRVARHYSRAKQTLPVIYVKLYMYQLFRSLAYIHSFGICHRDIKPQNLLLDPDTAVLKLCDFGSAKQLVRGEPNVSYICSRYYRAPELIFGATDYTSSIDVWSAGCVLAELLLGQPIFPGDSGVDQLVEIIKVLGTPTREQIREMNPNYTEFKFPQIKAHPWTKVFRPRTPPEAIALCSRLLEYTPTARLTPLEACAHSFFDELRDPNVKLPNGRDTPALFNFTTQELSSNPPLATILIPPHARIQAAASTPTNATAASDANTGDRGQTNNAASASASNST
Briefly: Z'-LYTE kinase assay (FRET, SER/THR 9 peptide). It is filed as biochemical. The settings on record: 0.04 ng/micro-l GSK-3beta (Invitrogen), 2 micro-M SER/THR 9 peptide, 15 micro-M ATP, 1 hour at room temperature, 1% DMSO. The procedure:
The Z′-LYTE kinase assay kit employs a fluorescence resonance energy transfer (FRET) between two fluorophores, coumarin and fluorescein, attached to each end of a substrate peptide.
For 0% phosphorylation control, ATP was omitted from the reaction mixture. For 100% phosphorylation control, SER/THR 9 phosphopeptide was used in place of the SER/THR 9 peptide. Following 1 hour incubation at room temperature, the reaction was stopped by the addition of half assay volume of development solution and further incubated for 1 hour at room temperature. […] The extent of phosphorylation was determined according to the 0% and 100% phosphorylation control samples using the following equation: […]
IC50 values were calculated by nonlinear four parameter fit using SigmaPlot, version 10.0 (Systat Software, Inc.).
Turning to `O=C(NCC1CCCNC1)c1ccc(O)c2[nH]c(C3CCCC3)nc12` (stereo not shown) [Example 15, 2-Cyclopentyl-4-hydroxy-N-(piperidin-3-ylmethyl)-1H-benzo[d]imidazole-7-carboxamide], half-maximal inhibition (IC50) was put at 130 nM. To `NC12CC3CC(C1)CC(NC(=O)c1ccc(O)c4[nH]c(-c5cccs5)nc14)(C3)C2` [Example 54, 2-(Thiophene-2-yl)-7-hydroxy-N-(adamantate-3-ylamino)-1H-benzo[d]imidazole-4-carboxamide] belongs 330 nM; to `N[C@H]1CC[C@H](NC(=O)c2ccc(O)c3[nH]c(-c4cccs4)nc23)CC1` [Example 47, N-(4-Aminocyclohexyl)-7-hydroxy-2-(thiophen-2-yl)-1H-benzo[d]imidazole-4-carboxamide], 51 nM.

On to `O=C(NCC1CCNC1)c1ccc(O)c2[nH]c(-c3cccs3)nc12` (stereo not shown) [Example 46, 7-Hydroxy-N-(pyrrolidin-3-ylmethyl)-2-(thiophen-2-yl)-1H-benzo[d]imidazole-4-carboxamide], for which the IC50 was determined as 25 nM.

Take `O=C(N[C@H]1CCCNC1)c1ccc(O)c2[nH]c(C3CC4CCC3C4)nc12` (stereo partly drawn) [Example 52, 2-(Bicyclo[2.2.1]heptan-2-yl)-7-hydroxy-N-((S)-piperidin-3-yl)-1H-benzo[d]imidazole-4-carboxamide]: the IC50 was 150 nM. Next, `O=C(NC1CCNCC1)c1ccc(O)c2[nH]c(-c3cccs3)nc12` [Example 40, 7-Hydroxy-N-(piperidin-4-yl)-2-(thiophen-2-yl)-1H-benzo[d]imidazole-4-carboxamide]: 18 nM; `O=C(NC1CCNCC1)c1ccc(O)c2[nH]c(C3CC3)nc12` [Example 10, 2-cyclopropyl-4-hydroxy-N-(piperidin-4-yl)-1H-benzo[d]imidazole-7-carboxamide]: 30 nM; `O=C(N[C@H]1CCCNC1)c1ccc(O)c2[nH]c(-c3ccc(Br)s3)nc12` [Example 51, (S)-2-(5-bromothiophen-2-yl)-7-hydroxy-N-(piperidin-3-yl)-1H-benzo[d]imidazole-4-carboxamide]: 16 nM. Next, `NC1CCCC(NC(=O)c2ccc(O)c3[nH]c(C4CC5CCC4C5)nc23)C1` (stereo not shown) [Example 55, N-(3-Aminocyclohexyl)-2-(bicyclo[2.2.1]heptan-2-yl)-7-hydroxy-1H-benzo[d]imidazole-4-carboxamide]: 250 nM; `O=C(NCC1CCCCN1)c1ccc(O)c2[nH]c(-c3cccs3)nc12` (stereo not shown) [Example 45, 7-Hydroxy-N-(piperidin-2-ylmethyl)-2-(thiophen-2-yl)-1H-benzo[d]imidazole-4-carboxamide]: 240 nM. To `O=C(NCC1CCCCN1)c1ccc(O)c2[nH]c(-c3ccccc3)nc12` (stereo not shown) [Example 18, 4-Hydroxy-2-phenyl-N-(piperidin-2-ylmethyl)-1H-benzo[d]imidazole-7-carboxamide] belongs 1500 nM; to `O=C(N[C@H]1CCCNC1)c1ccc(O)c2[nH]c(C3CC3)nc12` [Example 9, (S)-2-cyclopropyl-4-hydroxy-N-(piperidin-3-yl)-1H-benzo[d]imidazole-7-carboxamide], 100 nM. `O=C(N[C@H]1CCCNC1)c1ccc(O)c2[nH]c(-c3ccc(N4CCNCC4)s3)nc12` [Example 57, (S)-7-hydroxy-2-(5-(piperazin-1-yl)thiophen-2-yl)-N-(piperidin-3-yl)-1H-benzo[d]imidazole-4-carboxamide] gave an IC50 of 38 nM.

Regarding `O=C(N[C@H]1CCCNC1)c1ccc(O)c2[nH]c(-c3ccccc3)nc12` [Example 17, (S)-4-Hydroxy-2-phenyl-N-(piperidin-3-yl)-1H-benzo[d]imidazole-7-carboxamide], the IC50 came out at 120 nM. Next, `O=C(NC1CCCNC1)c1ccc(O)c2[nH]c(C3CC3)nc12` (stereo not shown) [Example 11, 2-cyclopropyl-4-hydroxy-N-(piperidin-3-yl)-1H-benzo[d]imidazole-7-carboxamide]: 190 nM; `CN1CCCC(NC(=O)c2ccc(O)c3[nH]c(-c4cccs4)nc23)C1` (stereo not shown) [Example 41, 7-Hydroxy-N-(1-methylpiperidin-3-yl)-2-(thiophen-2-yl)-1H-benzo[d]imidazole-4-carboxamide]: 180 nM; `O=C(NCC1CCCCN1)c1ccc(O)c2[nH]c(C3CCCC3)nc12` (stereo not shown) [Example 14, 2-cyclopentyl-4-hydroxy-N-(piperidin-2-ylmethyl)-1H-benzo[d]imidazole-7-carboxamide]: 1300 nM. As to `O=C(N[C@H]1CC[C@H](O)CC1)c1ccc(O)c2[nH]c(-c3cccs3)nc12` [Example 20, 7-Hydroxy-N-(4-hydroxycyclohexyl)-2-(thiophen-2-yl)-1H-benzo[d]imidazole-4-carboxamide], the midpoint of inhibition, the IC50, lay at 26 nM. In turn, `O=C(NCC1CCCNC1)c1ccc(O)c2[nH]c(-c3ccccc3)nc12` (stereo not shown) [Example 19, 4-hydroxy-2-phenyl-N-(piperidin-3-ylmethyl)-1H-benzo[d]imidazole-7-carboxamide] showed an IC50 of 130 nM. To `O=C(NCC1CCNCC1)c1ccc(O)c2[nH]c(C3CC3)nc12` [Example 5, 2-Cyclopropyl-4-hydroxy-N-(piperidin-4-ylmethyl)-1H-benzo[d]imidazole-7-carboxamide] belongs 320 nM; to `O=C(c1ccc(O)c2[nH]c(-c3cccs3)nc12)N1CCNCC1` [Example 21, (7-hydroxy-2-[thiophen-2-yl]-1H-benzo[d]imidazol-4-yl)(piperazin-1-yl)methanone], 22000 nM. `O=C(NCCN1CCNCC1)c1ccc(O)c2[nH]c(-c3cccs3)nc12` [Example 36, 7-Hydroxy-N-[2-(piperazin-1-yl)ethyl]-2-(thiophen-2-yl)-1H-benzo[d]imidazole-4-carboxamide] came in with an IC50 of 210 nM. For the compound `O=C(NCC1CCNCC1)c1ccc(O)c2[nH]c(-c3cccs3)nc12` [Example 42, 7-Hydroxy-N-(piperidin-4-ylmethyl)-2-(thiophen-2-yl)-1H-benzo[d]imidazole-4-carboxamide], the IC50 was 100 nM. `CN1CCCC(NC(=O)c2ccc(O)c3[nH]c(C4CC4)nc23)C1` (stereo not shown) [Example 8, 2-cyclopropyl-4-hydroxy-N-(1-methylpiperidin-3-yl)-1H-benzo[d]imidazole-7-carboxamide] registered an IC50 of 1300 nM. In the case of `O=C(NCC1CCCNC1)c1ccc(O)c2[nH]c(C3CC3)nc12` (stereo not shown) [Example 6, 2-Cyclopropyl-4-hydroxy-N-(piperidin-3-yl-methyl)-1H-benzo[d]imidazole-7-carboxamide], the IC50 was 1600 nM.

For `O=C(N[C@H]1CCCNC1)c1ccc(O)c2[nH]c(C3CCCC3)nc12` [Example 16, (S)-2-Cyclopentyl-4-hydroxy-N-(piperidin-3-yl)-1H-benzo[d]imidazole-7-carboxamide], half-maximal inhibition (IC50) was put at 120 nM. Next, `O=C(NC1CCC(C(=O)O)CC1)c1ccc(O)c2[nH]c(-c3cccs3)nc12` (stereo not shown) [Example 72, 4-[7-hydroxy-2-(thiophen-2-yl)-1H-benzo[d]imidazole-4-carboxamido]cyclohexanecarboxylic Acid]: 12 nM. Next, `O=C(NC[C@@H]1CCCNC1)c1ccc(O)c2[nH]c(Cc3cccs3)nc12` [Example 58, (R)-7-hydroxy-N-(piperidin-3-ylmethyl)-2-(thiophen-2-ylmethyl)-1H-benzo[d]imidazole-4-carboxamide]: 100 nM; `O=C(N[C@H]1CCCNC1)c1ccc(O)c2[nH]c(Cc3cccs3)nc12` [Example 59, (S)-7-hydroxy-N-(piperidin-3-yl)-2-(thiophen-2-ylmethyl)-1H-benzo[d]imidazole-4-carboxamide]: 170 nM; `O=C(NCC1CNC1)c1ccc(O)c2[nH]c(-c3cccs3)nc12` [Example 43, N-(Azetidin-3-ylmethyl)-7-hydroxy-2-(thiophen-2-yl)-1H-benzo[d]imidazole-4-carboxamide]: 43 nM. `NC12CC3CC(C1)CC(NC(=O)c1ccc(O)c4[nH]c(C5CC6CCC5C6)nc14)(C3)C2` (stereo not shown) [Example 53] showed an IC50 of 1900 nM. Turning to `O=C(NCC1CCCNC1)c1ccc(O)c2[nH]c(-c3cccs3)nc12` (stereo not shown) [Example 39, 7-Hydroxy-N-(piperidin-3-ylmethyl)-2-(thiophen-2-yl)-1H-benzo[d]imidazole-4-carboxamide], the half-inhibitory concentration (IC50) came out at 8.6 nM. `O=C(NC1CCNC1)c1ccc(O)c2[nH]c(C3CC3)nc12` (stereo not shown) [Example 12, 2-cyclopropyl-4-hydroxy-N-(pyrrolidin-3-yl)-1H-benzo[d]imidazole-7-carboxamide] gave an IC50 of 210 nM.

The compound `O=C(NC[C@H]1CCCNC1)c1ccc(O)c2[nH]c(Cc3cccs3)nc12` [Example 60, (S)-7-hydroxy-N-(piperidin-3-ylmethyl)-2-(thiophen-2-ylmethyl)-1H-benzo[d]imidazole-4-carboxamide] came in with an IC50 of 160 nM. The IC50 values of the last two compounds are within 1.5-fold of each other.

Regarding `O=C(NC1CCNC1)c1ccc(O)c2[nH]c(-c3cccs3)nc12` (stereo not shown) [Example 44, 7-Hydroxy-N-(pyrrolidin-3-yl)-2-(thiophen-2-yl)-1H-benzo[d]imidazole-4-carboxamide], half-maximal inhibition (IC50) required 110 nM. As for `N[C@H]1CC[C@@H](CNC(=O)c2ccc(O)c3[nH]c(C4CC5CCC4C5)nc23)CC1` (stereo partly drawn) [Example 56, N-{[(cis)-4-Aminocyclohexyl]methyl}-2-(bicyclo[2.2.1]heptan-2-yl)-7-hydroxy-1H-benzo[d]imidazole-4-carboxamide], half-maximal inhibition (IC50) required 240 nM.

Consider `O=C(NC1CCCNC1)c1ccc(O)c2[nH]c(C3CC4CCC3C4)nc12` (stereo not shown) [Example 49, 2-(Bicyclo[2.2.1]heptan-2-yl)-7-hydroxy-N-(piperidin-3-yl)-1H-benzo[d]imidazole-4-carboxamide], for which it took 230 nM to reach half-maximal inhibition (IC50).
